# Measured values: patent US6878738B1, “Anti-inflammatory oxo derivatives and hydroxy derivatives of pyrrolizines, and their pharmaceutical use” (Merckle GmbH, priority 1999, dated 2005)
# pIC50: −log10 of the molar value. Where two headings read alike, the source gives them in different places.
# Experiments:
# [1] = biological target: T1, 5-lipoxygenase (Homo sapiens, UniProt P09917); assay: Inhibition of 5-lipoxygenase: LTB4 formation in human granulocytes stimulated with calcium ionophore A 23187, ELISA; format: cell-based; details: read-out: IC50 5-LO
# T1 construct: Human granulocytes are used as a source of 5-lipoxygenase; endogenous in cells; host or cells: human granulocytes isolated from heparinised blood
# T1 sequence (P09917 1-674): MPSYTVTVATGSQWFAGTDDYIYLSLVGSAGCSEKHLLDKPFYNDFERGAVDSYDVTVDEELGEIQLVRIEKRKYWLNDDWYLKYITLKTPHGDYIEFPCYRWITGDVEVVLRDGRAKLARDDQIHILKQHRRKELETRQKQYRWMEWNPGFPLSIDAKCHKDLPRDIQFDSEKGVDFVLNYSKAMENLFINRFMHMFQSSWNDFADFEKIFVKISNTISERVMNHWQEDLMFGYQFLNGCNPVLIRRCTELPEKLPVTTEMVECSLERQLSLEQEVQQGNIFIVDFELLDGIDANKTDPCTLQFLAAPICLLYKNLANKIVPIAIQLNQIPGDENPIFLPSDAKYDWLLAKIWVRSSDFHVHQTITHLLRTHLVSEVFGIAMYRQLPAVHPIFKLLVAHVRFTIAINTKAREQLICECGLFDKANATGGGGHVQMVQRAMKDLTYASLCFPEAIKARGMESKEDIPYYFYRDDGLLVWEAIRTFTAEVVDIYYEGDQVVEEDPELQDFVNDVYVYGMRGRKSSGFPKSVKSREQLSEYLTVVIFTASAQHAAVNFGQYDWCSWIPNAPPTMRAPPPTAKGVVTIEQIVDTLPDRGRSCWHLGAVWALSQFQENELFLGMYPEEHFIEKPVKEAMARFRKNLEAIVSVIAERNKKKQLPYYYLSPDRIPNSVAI
# Method: Test System for Determination of the Inhibition of 5-Lipoxygenase
# Human granulocytes are used as a source of 5-lipoxygenase. By means of stimulation with calcium ionophore A 23187, LTB4 (leukotriene B4) is formed from endogenous arachidonic acid. The granulocytes are isolated and the enzyme reaction is carried out according to known processes (see Arch. Pharm. Med. Chem. 330, 307-312 (1997)).
# The blood, protected from clotting with heparin, is centrifuged over a discontinuous Percoll® gradient and the granulocyte layer is removed by pipette. After lysis of the erythrocytes, the granulocytes are washed a number of times and then adjusted to a specific cell count. The enzyme reaction is then started in the presence or absence of the test substance after addition of Ca^2+ using calcium ionophore […]. The synthesis of the leukotrienes is stopped after 1.5 minutes. The samples are centrifuged off and the supernatant is diluted. LTB4 is determined quantitatively by means of ELISA.
# [2] = biological target: T2, Cyclooxygenase-1 (Homo sapiens, UniProt P23219); assay: Inhibition of cyclooxygenase-1: prostaglandin E2 formed from human platelets after calcium ionophore, ELISA; format: cell-based; details: PGE2, read-out: IC50 COX-1
# T2 construct: endogenous in cells; host or cells: human platelets isolated over a Percoll gradient
# T2 sequence (P23219 24-599): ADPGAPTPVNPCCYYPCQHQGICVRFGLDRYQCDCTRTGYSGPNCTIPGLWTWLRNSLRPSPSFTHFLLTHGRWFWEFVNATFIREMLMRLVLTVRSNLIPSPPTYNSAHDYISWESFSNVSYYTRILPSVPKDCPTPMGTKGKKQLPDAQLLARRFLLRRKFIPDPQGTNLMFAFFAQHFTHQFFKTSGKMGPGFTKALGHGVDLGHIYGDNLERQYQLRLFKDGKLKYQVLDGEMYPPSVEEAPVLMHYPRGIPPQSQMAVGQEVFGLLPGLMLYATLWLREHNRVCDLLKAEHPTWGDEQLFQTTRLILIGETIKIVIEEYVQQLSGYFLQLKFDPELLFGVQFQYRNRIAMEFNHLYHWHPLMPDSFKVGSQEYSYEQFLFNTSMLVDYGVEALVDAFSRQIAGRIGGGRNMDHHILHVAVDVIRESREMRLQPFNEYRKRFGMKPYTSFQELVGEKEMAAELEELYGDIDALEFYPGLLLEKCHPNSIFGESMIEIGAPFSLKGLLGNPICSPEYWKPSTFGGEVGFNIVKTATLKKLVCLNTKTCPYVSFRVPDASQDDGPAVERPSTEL
# Method: Test System for Determination of the Inhibition of Cyclooxygenase-1
# In this test system, the amount of prostaglandin E2 formed from human platelets after addition of calcium ionophore is determined by means of ELISA. In this process, the platelets are obtained after centrifugation over a discontinuous Percoll® gradient. The enzyme reaction and the determination of the metabolites formed is carried out in principle as in the determination of 5-lipoxygenase inhibition. Differences exist with respect to the incubation time. Furthermore, the addition of a thromboxane synthase inhibitor is necessary (see Arch. Pharm. Med. Chem. 330, 307-312 (1997)).
# [3] = Determination of the partition coefficient n-octanol/water (OECD Guideline No. 117); format: physicochemical
# Method: Determination of the Partition Coefficient
# The partition coefficient P of the compounds was determined in the system n-octanol/water according to the OECD Guidline for Testing Chemicals, No. 117.
# [4] = biological target: T3, COX2 (from sheep placenta) (Ovis aries, UniProt P79208); assay: Inhibition of cyclooxygenase-2: COX2 stimulated with arachidonic acid, PGE2 by ELISA; format: biochemical; details: arachidonic acid 5 μM, read-out: IC50 COX-2
# T3 construct: COX2 (from sheep placenta) is preincubated with test substance at 4° C. for 10 min; from tissue; host or cells: sheep placenta
# T3 sequence (P79208 17-603): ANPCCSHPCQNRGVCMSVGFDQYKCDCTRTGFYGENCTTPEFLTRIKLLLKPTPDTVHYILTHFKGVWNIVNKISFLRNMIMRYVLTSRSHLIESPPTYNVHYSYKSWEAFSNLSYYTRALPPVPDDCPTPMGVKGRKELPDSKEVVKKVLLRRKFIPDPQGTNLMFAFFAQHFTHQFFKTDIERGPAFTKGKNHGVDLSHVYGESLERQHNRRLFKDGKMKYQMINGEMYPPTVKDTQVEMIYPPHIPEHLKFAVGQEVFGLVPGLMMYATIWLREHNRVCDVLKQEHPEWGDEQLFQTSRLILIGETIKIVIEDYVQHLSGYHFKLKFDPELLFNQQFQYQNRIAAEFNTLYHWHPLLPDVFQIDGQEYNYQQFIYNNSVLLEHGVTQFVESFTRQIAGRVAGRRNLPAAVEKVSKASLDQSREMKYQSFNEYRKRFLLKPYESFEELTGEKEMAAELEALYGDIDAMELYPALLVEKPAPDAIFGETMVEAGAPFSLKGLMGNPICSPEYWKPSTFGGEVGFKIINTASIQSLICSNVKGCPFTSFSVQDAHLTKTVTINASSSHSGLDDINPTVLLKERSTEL
# Method: Test System for Determination of the Inhibition of Cyclooxygenase-2
# COX2 (from sheep placenta) is preincubated with test substance at 4° C. for 10 min, then stimulated with arachidonic acid (5 μM) at 25° C. for 10 min. […] The determination is carried out at 3 dilutions (10^−7, 10^−6, 10^−5 M), and the PGE2 concentrations are quantified by means of ELISA (see Mitchell, J. A. et al. Proc. Nat. Acad. Sci 90: 11693-11697 (1993)).
pIC50 [2],"chromatographic logP ([3]; pH 2.5, read-out: Log P pH 2.5)","chromatographic logP ([3]; pH 7.5, read-out: Log P pH 7.5)",melting point,pIC50 [4],Compound,pIC50 [1]
6.02,5,5.1,–,–,"CC1(C)Cn2cc(-c3ccc(Cl)cc3)c(-c3ccccc3)c2C1=O [Example 6, 6-(4-Chlorophenyl)-2,3-dihydro-2,2-dimethyl-1-oxo-7-phenyl-1H-pyrrolizine]",6.64
–,–,–,193 °C,–,"CCOC(=O)C(=O)c1c(-c2ccc(Cl)cc2)c(-c2ccccc2)c2n1CC(C)(C)C2O (centres unmarked) [Example 11, Ethyl 6-(4-Chlorophenyl)-2,3-dihydro-1-hydroxy-2,2-dimethyl-7-phenyl-1H-pyrrolizin-5-yl-2-oxoacetate]",–
7.22,4.5,1.7,–,–,"COC1c2c(-c3ccccc3)c(-c3ccc(Cl)cc3)c(CC(=O)O)n2CC1(C)C (centres unmarked) [Example 14, 6-(4-Chlorophenyl)-2,3-dihydro-1-methoxy-2,2-dimethyl-7-phenyl-1H-pyrrolizin-5-ylacetic Acid]",–
–,–,–,133 °C,–,"Cc1c(-c2ccc(Cl)cc2)c(-c2ccccc2)c2n1CC(C)(C)C2O (centres unmarked) [Example 15, 6-(4-Chlorophenyl)-2,3-dihydro-1-hydroxy-2,2,5-trimethyl-7-phenyl-1H-pyrrolizine]",–
6.30,5.1,6.7,–,5.12,"COC1c2c(-c3ccccc3)c(-c3ccc(Cl)cc3)c(C)n2CC1(C)C (centres unmarked) [Example 16, 6-(4-Chlorophenyl)-2,3-dihydro-1-methoxy-2,2,5-trimethyl-7-phenyl-1H-pyrrolizine]",–
7.34,3.3,1.1,–,5.68,"CC1(C)Cn2c(CC(=O)O)c(-c3ccc(Cl)cc3)c(-c3ccccc3)c2C1=O [Example 18, 6-(4-Chlorophenyl)-2,3-dihydro-2,2-dimethyl-1-oxo-7-phenyl-1H-pyrrolizin-5-ylacetic Acid]",–
–,–,–,193 °C,–,"CC1(C)Cc2c(-c3ccccc3)c(-c3ccc(Cl)cc3)c(OC(=O)c3ccccc3)n2C1 [Example 26, 2-(4-Chlorophenyl)-6,6-dimethyl-1-phenyl-6,7-dihydro-5H-pyrrolizin-3-yl Benzoate]",–

Compound,pIC50 [2],"chromatographic logP ([3]; pH 2.5, read-out: Log P pH 2.5)","chromatographic logP ([3]; pH 7.5, read-out: Log P pH 7.5)",melting point,pIC50 [4],pIC50 [1]
"CC1(C)Cc2c(-c3ccccc3)c(-c3ccc(Cl)cc3)c(CC(=O)O)n2C1 [ML 3000, reference compound]",6.68,4.8,1.9,–,5.33,6.74
